Test results published in a melting point compilation (Tetko et al.; mined from patent text by program, amines drawn as free bases though some values may be those of a salt).

| melting point [°C] | Compound |
| --- | --- |
| 89 to 91 | COc1ccc2cc(-c3cccnc3)ccc2n1 |
| 184 to 186 | Cc1oc(-c2ccccc2)nc1CCOc1ccc(C[C@H](NCc2ccc(F)cc2)C(=O)O)cc1 |
| 126 to 128 | O=C(Nc1ccc(-n2nc(C(F)(F)F)cc2C(F)(F)F)cc1)c1ccc(F)cc1F |
| 195 to 197 | CN(C)S(=O)(=O)c1ccc(Cl)c(-c2csc(=Nc3ccccc3)n2C)c1 |
| 188 | CS(=O)(=O)Nc1ccc(-n2nc(C(F)(F)F)nc2-c2ccc(S(C)(=O)=O)cc2)cc1 |
| 107 to 110 | CCOC(=O)C1=Cc2cc(-c3ccc(C(F)(F)F)cc3)ccc2OCC1 |
| 222 to 224 | CCOC(=O)c1ncc2[nH]c3cccc(Oc4ccc(N)cc4)c3c2c1COC |
| 183 to 184 | CC(C)C1=NC(c2ccccc2)=NC(c2ccc(F)cc2)C1=CO (configuration not stated) |
| 240 to 244 | NC(=O)c1cccc(NS(=O)(=O)c2ccc([N+](=O)[O-])cc2)c1 |
| 44 to 46 | C=CC(=O)Oc1ccc(C(=O)c2ccccc2)cc1 |
| 162 to 163 | O=C(NCc1ccccc1)c1csc(-n2ccc(OCc3ccccc3)cc2=O)c1 |
| 70 to 72 | O=C(OCC=Cc1ccccc1)c1cccc2nnsc12 |
| 96 to 98 | CC[C@@H](c1ccccc1)N(Cc1ccc(C(=O)OC)c(F)c1)S(=O)(=O)c1ccc(Cl)cc1 |
| 160 to 161 | COC(=O)c1ccc(Cc2cn(C)c3ccc(CCNC(=O)N4CCOCC4)cc23)c(OC)c1 |
| 305 to 307 | CN1CCN(c2cc(C(=O)Nc3ccc4c(c3)-c3c(c(C(N)=O)nn3-c3ccc5c(c3)OCO5)CC4)c(Cl)cn2)CC1 |
| 138 | O=C1C=CC(OC(=O)c2ccc([N+](=O)[O-])cc2)(c2nc3ccccc3s2)C=C1 |
| 93 to 101 | CCN1CCCC(CC)(c2ccc(Nc3ncc4ccc(-c5ccccc5N(C)S(C)(=O)=O)n4n3)cc2)C1 (configuration not stated) |
| 126 to 128 | CCC1(CC)c2cc(Br)ccc2-c2ccc(C=O)cc21 |
| 215 to 217 | Cc1cccc2nnc(-c3ccccc3)c(O)c12 |
| 136 | C=C(C)C(=O)N=c1ccn(-c2ccccc2)nc1 |
| 227 to 229 | COc1cc2c(cc1-c1cccnc1)-c1c(-c3cccs3)c3c(n1CC2)C(=O)N(C(C)C)CCNC3 |
| 265 to 267 | CS(=O)(=O)c1ccc(-c2cnn(-c3csc4ccccc34)c(=O)c2-c2ccc(F)cc2)cc1 |
| 205 to 206 | N#Cc1ccc2nc(-c3cccc(Br)c3)cn2c1 |
| 155 to 157 | COc1ccc(-c2ccc(Cl)cc2)cc1COc1cccc2cc(NS(=O)(=O)C(F)(F)F)ccc12 |
| 198 to 199 | CCOc1nc2cccc(C(=O)OC)c2n1Cc1ccc(-c2ccccc2C(N)=O)cc1 |
| 175 to 176 | CCN(CC)C(=O)NCCc1cccc(-c2nc(=O)c3ccccc3s2)n1 |
| 227 to 228 | Cc1cc(NC(=O)NC2=C(c3ccccc3)c3ccccc3CS2)cc(C)c1O |
| 180 to 182 | COc1ccc(CCC2CN(C3=Nc4cc(F)ccc4Nc4sc(C)cc43)CCN2C)cc1 (configuration not stated) |

| melting point [°C] | Compound |
| --- | --- |
| 253 | c1ccc(-c2ncc(-c3cnc(-c4ccccc4)[nH]3)cn2)cc1 |
| 184 to 188 | Cc1ccc2cccc(OCc3cccc([N+](=O)[O-])c3C)c2n1 |
| 112 to 115 | OC(Cn1ccnc1)c1cccc2ccccc12 (configuration not stated) |
| > 240 | Cc1nc2c(c(=O)[nH]1)-c1cc(S(=O)(=O)Nc3ccc([N+](=O)[O-])cc3)ccc1CC2 |
| 87 to 88 | COC(=O)C(C)(Oc1ccc(-c2ccc(Cl)cc2)cc1)C(F)(F)F (configuration not stated) |
| 126 | O=C(Nc1ccc(OCCCBr)cc1)c1cccc2c(=O)c3ccccc3[nH]c12 |
| 121 | CS(=O)(=O)c1ccc(-c2cc(/C=C/CO)nn2C2CCCCC2)cc1 |
| 211 to 212 | CN(c1cccc2cc(C(=O)NCC3(SCc4ccccc4)CCC4(CC3)OCCO4)[nH]c12)S(=O)(=O)c1cccs1 |
| 140 to 141 | CC1Nc2ccccc2N(Cc2ccccc2)C(=O)C1Cc1ccccc1 (configuration not stated) |
| 115 to 122 | Cc1nc2c3c(ccn2c1C)[C@H](O)[C@](O)(Cc1ccccc1)[C@@H](c1ccccc1)N3 |
| 170 to 173 | CCCc1nc(C(C)(C)O)c(C(=O)OCOC(=O)C(C)(C)C)n1Cc1ccc(-c2ccccc2C(=O)O)cc1 |
| 135 to 137 | Cc1cccc(-c2n[nH]cc2-c2ccc(F)c(-c3c[nH]c(C(C)(C)O)n3)c2)n1 |
| 180 to 181 | CC(=O)Nc1cccc(C(=O)NCc2ccc(-n3c(-c4cccnc4N)nc4cc(C)cnc43)cc2)c1 |
| 89 to 90 | O=C(NCCCc1ccccc1)NCc1ccccn1 |
| 208 | CC=CCNc1cc(C(=O)O)cc(S(N)(=O)=O)c1Nc1ccc(N)cc1 |
| 105 to 106 | Nc1ccc(Cc2nc3ccccc3o2)cc1 |
| 129 to 134 | CNC(=O)C(=NOC)c1cc(C)c(C)cc1C(ON)=C(C)c1cccc(C(F)(F)F)c1 |
| 150 to 152 | Cc1ccc(Cc2c(C(F)(F)F)[nH][nH]c2=O)cc1 |
| 221 to 222 | Cc1ccc(CC2CCN(C(=O)C(=O)Nc3ccc4[nH]c(=O)sc4c3)CC2)cc1 |
| 175 to 176 | Cc1noc(NC(=O)N2CCN(c3nc(-c4cccc(Cl)c4Cl)cs3)CC2)c1C |
| 88 to 90 | CC(=O)Oc1ccc(C(=NNc2cccc([N+](=O)[O-])c2)c2ccc(OC(C)=O)cc2)cc1 |
| 173 to 175 | CCS(=O)(=O)CCC(=O)NNC(=O)N1Cc2cc(OC)ccc2Oc2ccc(Cl)cc21 |
| 50 to 53 | COc1ccc(CCC(C)(C)NCC(O)c2cccc(Cl)c2)cc1 (configuration not stated) |
| 167 to 169 | OC(c1ccccc1)(c1ccc(C(F)(F)F)cc1)c1nccn1Cc1ccccc1 (configuration not stated) |
| > 210 | CCOc1ccnc2[nH]cc(C(C)=O)c12 |
| 335 to 337 | O=c1[nH]c2cc(Cl)ccc2c(O)c1-c1ccc(F)cc1 |
| 104 to 106 | CC(O)(C(=O)O)c1cccc(OCc2ccc3ccccc3c2)c1 (single isomer, unassigned; (-)) |

Further lines, the compound ahead of its results:

| Compound | melting point [°C] |
| --- | --- |
| N#Cc1ccc(OC2SCC(O)C(O)C2O)cn1 (configuration not stated) | 179 to 180 |
| Cc1c(C2CCC(c3cccs3)(N(C)C)CC2)[nH]c2ccccc12 (configuration not stated) | 191 to 197 |
| Cc1cc(CCCCCCCOc2ccc(C3=NCC(CO)O3)cc2)on1 (configuration not stated) | 71 to 73 |
| C1CNCCSCCNCCN1 | 51 to 54 |
| CCOC(=O)C(=O)NNC(=O)c1cc(C)cc(C)c1 | 159 |
| CC(C)(C)OC(=O)[C@H](O)CCc1ccc([N+](=O)[O-])cc1 | 41 to 42 |
| C=CCSc1nc(=O)[nH]cc1F | 150 to 152 |
| CCN1C(=O)CC2(CC(=O)N(Cc3ccccc3)C2)C1=O (configuration not stated) | 125 to 126 |
| CC(N)CCc1ccc(C(N)=O)s1 (racemic) | 65 to 75 |
| O=C1OCC2C3OC(C4=C3CCCC4)C12 (configuration not stated) | 105 to 106 |
| N#CCCn1nc2ccc(Cl)nn2c1=O | 166 to 168 |
| Nc1c(F)c(N2CC3NCCOC3C2)c(F)c2c1c(=O)c(C(=O)O)cn2C1CC1F (configuration not stated) | 292 to 294 |
| C[C@@H]1C(=O)N(c2ccc(C#N)c(C(F)(F)F)c2)[C@@H](C)[C@H]1O | 82 to 85 |
| CC(C)C(O)(C#Cc1cccs1)c1cncnc1 (configuration not stated) | 113 to 114 |
| O[C@H]1CC[C@H](N(Cc2ccccc2)Cc2ccccc2)CC1 | 97 to 99 |
| COc1ccc(C2=NO[C@](CO)(CCO)C2)cc1OC1CCCC1 | 108 to 109 |
| CCOCc1nc2c(N)nc3cc(OCCCN4CCCC4=O)ccc3c2n1CCCCNC(=O)OC(C)(C)C | 134 to 136 |
| CCOC(=O)c1cn(CCCN(C)C)c2nn(C)cc2c1=O | 120 to 121 |
| COC(=O)[C@H](Cc1ccc([N+](=O)[O-])cc1)NC(C)=O | 126 |
| CC(C)(C)C1=CC(=O)C2=C(CCCC2)C1=O | 50 to 52 |
| CC1CCC(c2cccc(NC(=O)N3CCC4(CC3)OCCO4)c2)(N2CCN(c3ccccc3)CC2)CC1 (configuration not stated) | 245 to 247 |

| Compound | melting point [°C] |
| --- | --- |
| CCc1nc2c(N)nc3cc(OCC(=O)N4CCOCC4)ccc3c2n1CC1CCOCC1 | 245 to 247 |
| CCS(=O)(=O)c1ccc(C(=O)O)c(Cl)c1Cl | 170 to 172 |
| Cc1ccccc1C(O)c1cncnc1C(C)(C)C (configuration not stated) | 125 to 127 |
| CC(C)N(C)S(=O)(=O)NC(=O)c1ccc(F)c([N+](=O)[O-])c1 | 164 to 165 |
| C[C@H](NC1Cc2ccccc2C1)C(=O)O | 285 |
| Cc1cc(N=Nc2ccccn2)cc(C)c1-c1ccc(-c2c(C)cc(N=Nc3ccccn3)cc2C)o1 | 206 to 207 |
| c1ccc2c(c1)CC(Nc1ncnc3nc[nH]c13)C2 | 300 |
| CCC(=O)N1CCN(C(=O)OC2C3=C(SCC(OC)CS3)C(=O)N2c2ccc(Cl)cn2)CC1 (configuration not stated) | 160 |
| CO/C(=C\C=C\c1cc2cc(Br)ccc2[nH]1)C(=O)O | 208 to 210 |
| CCOC(=O)c1cc2c(nc1C(=O)OCC)CCSC2 | 65 to 66 |
| CC(=O)OCCNC(=O)Nc1ccc2c(c1)C(c1ccccc1F)=NCC(=O)N2C | 196 to 198 |
| COc1ccc(-c2noc3c2C(c2cc(OC)c(OC)c(OC)c2)C2=C(COC2=O)N3)cc1 (configuration not stated) | 218 to 219 |
| Cc1cc(-n2nn[nH]c2=O)c(Cl)cc1Cl | 135 to 137 |
| Cc1n[nH]c2ccc(C3C(C#N)=C(C(F)F)NC(C(F)F)=C3C#N)cc12 | 289 |
| CC1(C2CCCC2)Cc2cc(OCCCCCC(=O)O)c(Cl)c(Cl)c2C1=O (configuration not stated) | 127 to 129 |
| O=C(OCc1cncs1)Oc1ccc([N+](=O)[O-])cc1 | 62 to 64 |
| O=C(C(=O)c1cccc(C(=O)C(=O)c2ccc(Oc3ccc(Br)cc3)cc2)c1)c1ccc(Oc2ccc(Br)cc2)cc1 | 120 to 122 |
| CSc1ccc(C=O)cc1OC(C)C | 50 to 54 |
| O=C(CCOCCOCCC(=O)Oc1cc(O)cc(O)c1)Oc1cc(O)cc(O)c1 | 166 to 168 |
| CN1C(=O)Nc2c(Cl)cc(Cl)cc2C12NC(=O)NC2=O (configuration not stated) | > 280 |
| COc1cc(OC)c(/C=C/S(=O)(=O)Cc2cnc(OC)c([N+](=O)[O-])c2)c(OC)c1 | 183 to 186 |
